Laboratory results reported in patent publication US10906938B2, “Cell epitopes and combination of cell epitopes for use in the immunotherapy of myeloma and other cancers” (Immatics Biotechnologies GmbH, priority 2015, dated 2021).

Assays:
Format in all cases: cell-based, human
[1] = test system: PBMC obtained from MM patients; experiment: 12-day recall IFNγ ELISPOT with PBMC of MM patients; details: for specific T-cell recognition, MM patients positive/tested / specific T-cell recognition, share of MM patients: 12-day recall IFNγ ELISPOT, PBMC of MM patients, HLA class I peptide
Description: PBMC from MM patients and HVs were cultured as described previously. In brief, for CD8^+ T-cell stimulation, PBMC were pulsed with 1 μg/ml per peptide and cultured for 12 days adding IL-4 and IL-7 on day 0 and 1 as well as IL-2 on day 3, 5, 7 and 9. HLA-A*02 (KLFEKVKEV) (SEQ ID NO. 231) and B*07 (KPSEKIQVL) (SEQ ID NO. 232) restricted control peptides derived from benign tissues (HV-exclusive HLA ligands) served as negative control. Peptide-stimulated PBMC were analyzed by ELISPOT assays on day 12. For CD4^+ T-cell stimulation, culture was performed as described for CD8^+ T cells except for 2 modifications: pulsing was carried out with 10 μg/ml of HLA class II peptide and no IL-4 or IL-7 was added.
IFNγ ELISPOT assays were carried out as described previously. In brief, 96-well nitrocellulose plates (Millipore) were coated with […] IFNγ mAb (Mabtech) and incubated over night at 4° C. Plates were blocked with 10% human serum for 2 h at 37° C. 2.5×10^5 cells/well of pre-stimulated PBMC were pulsed with 1 μg/ml (HLA class I) or 2.5 μg/ml (HLA class II) peptide and incubated for 24-26 h. Readout was performed according to manufacturer's instructions. PHA was used as positive control. HLA-A*02 (KLFEKVKEV) (SEQ ID NO. 231) and B*07 (KPSEKIQVL) (SEQ ID NO. 232) restricted control peptides derived from benign tissues (HV-exclusive HLA ligands) served as negative control. Spots were counted using an ImmunoSpot S5 analyzer (CTL). T cell responses were considered to be positive when >10 spots/well were counted and the mean spot count per well was at least 3-fold higher than the mean number of spots in the negative control wells (according to the cancer immunoguiding program (CIP) guidelines).

[2] = test system: CD8+ T cells from one MM patient; experiment: aAPC priming and tetramer staining, CD8+ T cells of an MM patient; details: T cells from an MM patient without previous T-cell reactivity for P2
Description: (§1) For the generation of artificial antigen presenting cells (aAPC), 4×10^6 streptavidincoated polystyrene particles (Bangs Laboratories) per ml were resuspended in PBE (PBS/BSA/ETDA, Gibco/Sigma Aldrich/Lonza) containing 200 pM biotinylated MHCpeptide monomer and 20 nM anti-human biotinylated CD28 antibody and incubated at room temperature for 30 min. After washing, the aAPCs were stored at 4° C. prior to use. CD8^+ T cells from MM patients and HV were enriched by positive selection using magnetic cell sorting (Miltenyi Biotec). Stimulations were initiated in 96-well plates with 1×10^6 T cells plus 2×10^5 aAPCs in 200 μl T-cell medium complemented with 5 ng/ml human IL-12 (PromoKine). […] IL-2 (R&D Systems) were added on day 5. aAPC stimulation was repeated on day 10, for a total of 3 cycles.
(§2) The frequency of peptide-specific CD8^+ T cells was determined on a FACS Canto II cytometer (BD Bioscience) by staining with anti-CD8 (Biolegend) and HLA:peptidetetramer-PE as described previously. Staining with tetramers containing the CMV pp65 A*02 peptide NLVPMVATV (SEQ ID No. 236) served as positive control, tetramers containing irrelevant, non-primed A*02 restricted control peptides as negative controls. […]

[3] = test system: CD8+ T cells from one healthy individual; experiment: aAPC priming and tetramer staining, CD8+ T cells of a healthy individual
Description: as §1, §2

MM.1S cells = experiment: HLA class I ligand presentation upon carfilzomib treatment on MM.1S cells (LC-MS/MS); parameters: key to modulation upon carfilzomib-treatment 24 #1 / modulation upon carfilzomib-treatment 24 #2 / modulation upon carfilzomib-treatment 24 #3 / modulation upon carfilzomib-treatment 48 #1 / modulation upon carfilzomib-treatment 48 #2 / modulation upon carfilzomib-treatment 48 #3: −1: significantly down-modulated; 0: not signifcant/not detected; 1: significantly up-modulated; details: MM.1S cells, vs mock-treated controls; for modulation upon carfilzomib-treatment 24 #1 / modulation upon carfilzomib-treatment 24 #2 / modulation upon carfilzomib-treatment 24 #3: 24 h after carfilzomib treatment (100 nM, 1 h); for modulation upon carfilzomib-treatment 24 #1 / modulation upon carfilzomib-treatment 48 #1: biological replicate #1; for modulation upon carfilzomib-treatment 24 #2 / modulation upon carfilzomib-treatment 48 #2: biological replicate #2; for modulation upon carfilzomib-treatment 24 #3 / modulation upon carfilzomib-treatment 48 #3: biological replicate #3; for modulation upon carfilzomib-treatment 48 #1 / modulation upon carfilzomib-treatment 48 #2 / modulation upon carfilzomib-treatment 48 #3: 48 h after carfilzomib treatment (100 nM, 1 h)
Description: HLA class I and II molecules were isolated using standard immunoaffinity purification as described using the pan-HLA class I specific mAb W6/32, the pan-HLA class II specific mAb T039 and the HLA-DR specific mAB L243 (produced in house).
HLA ligand extracts were analyzed in 5 technical replicates as described previously. In brief, peptide samples were separated by nanoflow HPLC (RSLCnano, ThermoFisher) using a 50 μm×25 cm PepMap RSLC column (Thermo Fisher) and a gradient ranging from 2.4 to 32.0% acetonitrile over the course of 90 min. Eluting peptides were analyzed in an online coupled LTQ Orbitrap XL mass spectrometer (Thermo Fisher) using a top 5 CID (collision induced dissociation) fragmentation method.
Data processing was performed as described previously. In brief, the Mascot search engine (Mascot 2.2.04; Matrix Science, London, UK) was implemented to search the human proteome as comprised in the Swiss-Prot database (20,279 reviewed protein sequences, September 2013) without enzymatic restriction. Potential mutated HLA ligands were searched implementing a database containing the human proteome concatenated with proteins containing single amino acid variants (SAVs) listed in the COSMIC database (http://cancer.sanger.ac.uk/cosmic/). Only recurrent SAVs described in 2 or more samples of hematological origin were included. Oxidized methionine was allowed as a dynamic modification. The false discovery rate was estimated using the Percolator algorithm and set to 5%. Peptide lengths were limited to 8-12 amino acids for HLA class I and 12-25 amino acids for HLA class II. Protein inference was disabled, allowing for multiple protein annotations of peptides. HLA annotation was performed using SYFPEITHI [46] or an extended in-house database. Experimental validation of peptide identifications and HLA annotations was performed by mass spectrometric and functional characterization of synthetic peptides for a subset of peptides.
The inventors quantitatively assessed HLA class I ligand presentation during proteasome inhibitor therapy. Observed was a considerable plasticity of the HLA class I ligandome after treatment with carfilzomib with 17.9±1.1% of MM.1S ligands and 11.2±0.7% of U266 ligands (mean of three biological replicates ±s.d.) showing significant modulation (fold-change ≥4, Po0.01 after Benjamini-Hochberg correction) at t24 h compared with mock-treated controls. Briefly, Cultured MCLs (MM.1S and U266) and primary myeloma samples were incubated with carfilzomib (100 nM, Kyprolis®, available, e.g., from Onyx Pharmaceuticals, Inc.) as an example for a proteasome inhibitor for a 1-h period, followed by three washes in PBS (Gibco) and recultured for additional 24 or 48 h. Controls were incubated with vehicle control (glucose 5%) for 1 h, followed by identical washing and incubation for 24 or 48 h. Experiments were conducted in three biological replicates where indicated.

U266 cells = experiment: HLA class I ligand presentation upon carfilzomib treatment on U266 cells (LC-MS/MS); parameters: key to modulation upon carfilzomib-treatment 24 #1 / modulation upon carfilzomib-treatment 24 #2 / modulation upon carfilzomib-treatment 24 #3 / modulation upon carfilzomib-treatment 48 #1 / modulation upon carfilzomib-treatment 48 #2 / modulation upon carfilzomib-treatment 48 #3: −1: significantly down-modulated; 0: not signifcant/not detected; 1: significantly up-modulated; details: U266 cells, vs mock-treated controls; for modulation upon carfilzomib-treatment 24 #1 / modulation upon carfilzomib-treatment 24 #2 / modulation upon carfilzomib-treatment 24 #3: 24 h after carfilzomib treatment (100 nM, 1 h); for modulation upon carfilzomib-treatment 24 #1 / modulation upon carfilzomib-treatment 48 #1: biological replicate #1; for modulation upon carfilzomib-treatment 24 #2 / modulation upon carfilzomib-treatment 48 #2: biological replicate #2; for modulation upon carfilzomib-treatment 24 #3 / modulation upon carfilzomib-treatment 48 #3: biological replicate #3; for modulation upon carfilzomib-treatment 48 #1 / modulation upon carfilzomib-treatment 48 #2 / modulation upon carfilzomib-treatment 48 #3: 48 h after carfilzomib treatment (100 nM, 1 h)
In short: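 MM.1S and U266 myeloma cells were pulsed with 100 nM carfilzomib for 1 h, washed and recultured 24 or 48 h; controls got 5% glucose vehicle. HLA class I ligands were immunopurified with W6/32 and analysed by nanoLC-MS/MS (CID, 5 technical replicates, 5% FDR, 8-12-mers). Modulation versus mock was scored as fold-change ≥4 with Benjamini-Hochberg-corrected significance.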

Sequence | specific T-cell recognition, MM patients positive/tested [1] | specific T-cell recognition, share of MM patients [1] [%] | memory T-cell responses, MM patients positive/tested ([1]; IFNγ ELISPOT, HLA class II peptide, MM patients) | P2-tetramer positive CD8+ T cells after priming [2] [%] | P2-tetramer positive CD8+ T cells after in vitro priming ([3]; HV-derived CD8+ T cells, 3 cycles of aAPC priming) [%] | tetramer-positive T-cell populations ex vivo ([3]; ex vivo, without priming) [%] | modulation upon carfilzomib-treatment 24 #1 (MM.1S cells) | modulation upon carfilzomib-treatment 24 #2 (MM.1S cells) | modulation upon carfilzomib-treatment 24 #3 (MM.1S cells) | modulation upon carfilzomib-treatment 48 #1 (MM.1S cells) | modulation upon carfilzomib-treatment 48 #2 (MM.1S cells) | modulation upon carfilzomib-treatment 48 #3 (MM.1S cells) | modulation upon carfilzomib-treatment 24 #1 (U266 cells) | modulation upon carfilzomib-treatment 24 #2 (U266 cells) | modulation upon carfilzomib-treatment 24 #3 (U266 cells) | modulation upon carfilzomib-treatment 48 #1 (U266 cells) | modulation upon carfilzomib-treatment 48 #2 (U266 cells) | modulation upon carfilzomib-treatment 48 #3 (U266 cells)
KAMEAASSL (listed as Homo sapiens) [SEQ ID NO: 82] | 2/16 | 13 | – | – | – | – | – | – | – | – | – | – | – | – | – | – | – | –
NSVIIVDKNGRLV (listed as Homo sapiens) [SEQ ID NO: 237] | – | – | 2/5 | – | – | – | – | – | – | – | – | – | – | – | – | – | – | –
SLLEQGLVEA (listed as Homo sapiens) [SEQ ID NO: 177] | 1/8 | 13 | – | 0.236 | 0.403 | ≤ 0.1 | – | – | – | – | – | – | – | – | – | – | – | –
RPQLKGVVL | – | – | – | – | – | – | 0 | 0 | 0 | 0 | 0 | 0 | 0 | 0 | 0 | 0 | 0 | 0
KPRPPQGL | – | – | – | – | – | – | 1 | 1 | 1 | 1 | 0 | 0 | 0 | 0 | 0 | 1 | 1 | 1
